Measured values reported in patent publication US8710068B2, “Method of treating cancer using a survivin inhibitor” (The Trustees Of The University Of Pennsylvania, priority 2009, dated 2014).

Experiments:
Survivin protein = target: T1, Survivin protein (Homo sapiens, UniProt O15392); test: Isothermal titration calorimetry (ITC) binding to native Survivin
T1 construct: made in house; host or cells: bacteria
Protocol: (§1) FIG. 5 illustrates an analysis of S12-Survivin binding with isothermal titration calorimetry (ITC). Single-site point mutagenesis was performed to create the Survivin mutants F86A and V89Y. The native and the mutant proteins were produced and purified from bacteria.
FIG. 16 illustrates the isothermal titration calorimetry profile of the binding of SBDO3 to the Survivin homodimer.
(§2) In order to examine the specificity of the binding, we generated point mutations on the Survivin protein at the site presumably targeted by S12. The two mutations were substitutions of phenylalanine 86 with alanine (F86A) and valine 89 with tyrosine (V89Y). These two altered sites are also adjacent to the interface involved in dimerization of the Survivin protein. Based on structural analyses, we predict that alterations of either of these two amino acid residues may abolish the binding of S12 without affecting the overall structure of the Survivin protein.
We tested the binding of the Survivin target molecules to Survivin by isothermal titration calorimetry.

Sur-F86A = target: T2, Sur-F86A (Homo sapiens, UniProt O15392, F86A); test: ITC binding to Survivin mutant F86A; conditions: in words
T2 construct: made in house; host or cells: bacteria
Protocol: as §1, §2

[1] = test system: AsPC1 pancreatic cancer cells; test: MTT tumor cell proliferation assay, AsPC1; assay type: cell-based, human; conditions: AsPC1, 5, 10, 20, or 50 μg/ml for 48 hours
Protocol: FIG. 3 illustrates the effect of S2 and its analogs on tumor cell proliferation. Cells were treated with DMSO or Survivin targeting molecules at the indicated concentration for 48 hours. The percentage of viable cells was evaluated by MTT assay. (A) AsPC1; (B) HeLa; (C) SKBR3; (D) DAOY.
FIG. 18 illustrates the effect of SBDO3, SN2, or SDC1 on tumor cell proliferation. (A) AsPC1 cells were treated with DMSO or the Survivin targeting molecules SBDO3 or SN2 at the indicated concentration for 48 hours. (B) SKBR3 cells were treated with DMSO or SDC1 for 48 hours. The percentage of viable cells was evaluated by MTT assay.
S2 and its analogs (S10, S11, S12, and S13) were tested for the ability to inhibit tumor cell proliferation by MTT assay. The AsPC1 pancreatic cancer cells were treated with DMSO, a control molecule SC2, or the Survivin-targeting compounds at the concentration of 5, 10, 20, or 50 μg/ml for 48 hours. The number of viable cells was evaluated by MTT.
SBDO3, SN2 and SDC1 were tested for the ability to inhibit tumor cell proliferation by MTT assay. The AsPC1 pancreatic cancer cells were treated with DMSO or the Survivin-targeting compounds at the concentration of 5, 10, 20, or 50 μg/ml for 48 hours. The number of viable cells was evaluated by MTT.

HeLa cells = test: BrdU incorporation DNA synthesis assay (FACS), HeLa; assay type: cell-based, human; conditions: 4 hours treatment then one-hour BrdU
Protocol: BrdU-labeled cells were analyzed by FACS. The percentage of BrdU-positive cells is indicated.
HeLa cells were treated with S12, aphidicolin, or DMSO (control) for 4 hours. BrdU was then added to the medium followed by an additional incubation of 1 hour. The amount of BrdU was examined by staining with anti-BrdU antibody and FACS analysis. The percentage of BrdU-positive cells is shown.
To establish the specificity of the biological activities of the Survivin targeting we examined whether the compounds affect DNA synthesis. HeLa cells were treated with Aphidicolin, S2 or DMSO for 4 hours, followed by one-hour incubation with BrdU. The cells were then collected, fixed and stained with FITC-labeled anti-BrdU antibody.

[2] = Western blot for PARP cleavage (caspase activation) and Survivin levels, HeLa; assay type: cell-based, human; conditions: 50 μg/ml, 12 hours, anti-Survivin Western blot
Protocol: (§3) FIG. 12 illustrates S12 induction of caspase activation in HeLa cells. (A) HeLa cells were incubated with DMSO (control), S12, Taxol, nocodazole (Noco), or etoposide (Etop) for 12 hours. The cell lysates were analyzed by Western blot using the anti-PARP antibody (top panel), the anti-α-tubulin antibody (middle panel), or the anti-Survivin antibody (bottom panel). (B) S12 causes cell death in a cell cycle dependent manner. HeLa cells, either unsynchronized or synchronized by thymidine treatment were incubated either with S12 or DMSO. Cell death was quantitated by trypan blue exclusion assay.
(§4) We examined whether S12 treatment leads to apoptosis. HeLa cells were incubated with S12 at the concentration of 50 μg/ml or with DMSO alone for 12 hours. To compare the effect with that of other therapeutic agents, HeLa cells were also treated with Taxol, nocodazole, or etoposide, respectively. The cell lysates were collected and subjected to Western blot analysis using an anti-PARP antibody. […] We also re-probed the blot with an anti-Survivin antibody. […] These observations, combined with the earlier findings, indicate that the Survivin-targeting molecule S12 can block mitosis and cause apoptosis.

PARP = test: as above; assay type: cell-based, human; conditions: 12 hours
Protocol: as §3, §4

AsPC1 tumor xenograft [3] = test: AsPC1 mouse xenograft tumor growth; assay type: in vivo, athymic mice
Protocol: FIG. 13 illustrates S12 inhibition of tumor growth in vivo. (A) AsPC1 cells were injected subcutaneously into the mid-dorsum of athymic mice. S12 was administered 10 days after the injection at the concentration of 5 mg/kg (blue triangles; middle line on the graph, n=4) or 15 mg/kg (red triangles; lower line on the graph; n=3). The control group was treated with PBS containing DMSO only (black square; upper line on the graph). The results represent the mean tumor volume+/− standard error (P<0.05). (B) In a second set of studies S12 was administered at the concentration of 15 mg/kg or 50 mg/kg (n=3). In both studies the control group was treated with PBS containing DMSO only. The results represented the mean tumor volume+/− standard error.
The effect of S12 on tumor growth was examined using a mouse xenograft model. The human pancreatic cell line AsPC1 was injected subcutaneously into athymic mice and formed palpable tumors within 10 days. S12 was then administered at the concentration of 5 mg/kg or 15 mg/kg three times per week until the end point of the experiment. The size of the tumors was monitored for up to 48 days after the initial grafting.

AsPC1 tumor xenograft [4] = test: Immunohistochemistry of tumor xenograft (Ki67, TUNEL); assay type: in vivo, athymic mice
From the text: FIG. 14 illustrates the immunohistochemistry analysis of tumor xenograft following treatment with S12 or PBS.
We performed immunohistochemistry studies to analyze the cellular effects of S12 treatment on the tumors. […] In addition, we examined apoptosis using the TUNEL assay.

[5] = Toxicity observation in xenograft mice; assay type: in vivo; conditions: 5 to 50 mg/kg, xenograft studies

T1 sequence (O15392 whole entry): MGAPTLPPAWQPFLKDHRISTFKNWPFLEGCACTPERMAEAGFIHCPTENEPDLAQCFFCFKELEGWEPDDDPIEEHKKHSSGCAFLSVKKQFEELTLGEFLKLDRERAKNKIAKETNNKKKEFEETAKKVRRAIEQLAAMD
T2 sequence (O15392 whole entry F86A): as the sequence (O15392 whole entry) above, with F86A counted along it

O=C(CC1(O)C(=O)Nc2ccc(Br)cc21)c1ccc2c(c1)OCO2 (centres unmarked) [S12]
binding to the Survivin protein (Survivin protein; ITC, in words): can bind to the Survivin protein | N (ITC stoichiometry) (Survivin protein; isothermal titration calorimetry, native Survivin): 1.00 | Kd (Survivin protein; isothermal titration calorimetry, native Survivin, read-out: K (ITC binding constant) (converted)): 224 nM | binding to mutant Sur-F86A (Sur-F86A): did not bind | inhibition of cell proliferation / cell viability [1]: can inhibit cell proliferation and reduce cell viability in a dose-dependent manner | DNA synthesis (BrdU incorporation) (HeLa cells): did not block DNA synthesis | overall Survivin levels [2]: did not significantly affect | cleavage of PARP (caspase activation) (PARP; 50 μg/ml, Western blot): detected | apoptosis induction compared with other agents (PARP; at the concentrations employed): more potent in inducing apoptosis than Taxol, nocodazole, or etoposide | tumor volume (AsPC1 tumor xenograft [3]; 5 mg/kg or 15 mg/kg three times per week, up to 48 days): significantly lowered the tumor volume in a dose-dependent manner | tumor regression (AsPC1 tumor xenograft [3]; dose raised to 50 mg/kg): enhancement of tumor regression | proliferation of tumor cells (Ki67) (AsPC1 tumor xenograft [4]; immunohistochemistry of tumor xenograft): drastically reduced proliferation of tumor cells | apoptosis in the tumors (TUNEL assay) (AsPC1 tumor xenograft [4]; tumor xenograft): increased the levels of apoptosis | toxic effects to the mice [5]: no overtly toxic effects
